According to patent US9902684B2, “Compound isolated from Isodon forrestii var. forrestii and preparation method and applications thereof” (JIANGSU PROVINCE INSTITUTE OF TRADITIONAL CHINESE MEDICINE, priority 2016, dated 2018):
Residues, ends and D or L forms follow the SMILES beside them. *: point of attachment. Cbz = O=C(OCc1ccccc1)*; CH2F = FC*

Tests used:
[1] = system: tumor cells (liver cancer, breast cancer, lung cancer, osteosarcoma, melanoma, cervical cancer cell); experiment: MTT experiment, growth inhibition of various tumor cells; format: cell-based; conditions: Homo sapiens; all tested tumor cells; FIG. 2
Protocol: (§1) Dissolving Iso A (purity >99%) in DMSO, and preserving stock solution with concentration of 40 mM in −20° C. Detecting the inhibition effects of Iso A in various cells that includes liver cancer cell, breast cancer cell, lung cancer cell, osteosarcoma cell, melanoma cell, cervical cancer cell etc., and in normal human hepatocyte L02, human embryo lung cell HFL1, human mammary epithelial cell MCF 10A. […] Among tested cells, HepG2 cell is the most sensitive to Iso A, thus HepG2 is selected as a model in follow-up experiments.

[2] = system: hepatocellular carcinoma cell line HepG2; experiment: MTT assay, HepG2 cell growth; format: cell-based, human; conditions: various concentrations, 24 hours; FIG. 3
Protocol: as §1

[3] = system: human normal hepatic cell line L02; experiment: MTT assay, normal hepatic cell L02 growth; format: cell-based; conditions: various concentrations, 24 hours; FIG. 3
Protocol: as §1

HepG2 cells = experiment: Trypan blue exclusion assay, HepG2; format: cell-based, human; conditions: various concentrations, 24 hours; FIG. 4
Protocol: as §1

[4] = system: human normal hepatic cell L02; experiment: Trypan blue exclusion assay, normal cells; format: cell-based; conditions: various concentrations, 24 hours; FIG. 4
Protocol: as §1

HepG2 cell = experiment: Annexin V flow cytometry analysis of apoptosis; format: cell-based, human; conditions: FIG. 5
Protocol: as §1

HepG2 xenograft = experiment: Murine xenograft tumor model of hepatocellular carcinoma; format: in vivo, BALB/c nude mouse; conditions: 15 mg/kg once daily, 15 days, vs control group
Source text: • a) Cell line: Human hepatocellular carcinoma cell line HepG2 is bought from the Cell Bank of Chinese Academy of Sciences for Type Culture Collection • b) Animal: 20 BALB/c male nude mouse with weight of (13±2 g), the BALB/c mice is bought from Model Animal Research Center of Nanjing University, the animal is bred under the environment without a special pathogen in the Animal Center of Jiangsu Traditional Chinese Medicine Research Institution [SCXK( ? ) 2002-0001]. • c) Pharmaceutical: Iso A 2. Experiment Method: • a) Make of a murine xenograft model ofepatocellular carcinoma: HepG2 cells in log phase are digested with trypin, and suspended with a final density of 2×10^7 cells/ml. Then, 200 μl (100 μl cells+100 μl matrigel) cell suspension is inoculated into the right subaxillary of nude mice with 1 ml injector. • b) Group and administration of experimental animal: grouping when the tumor becomes 100 mm^3 into 10 per group (same average volume per group, too big or small ones are eliminated). Grouping specifically as followings: (1) Iso A 15 mg/kg dose group, (2) solvent control group (0.5% CMC-Na). […] Antitumor effect is determined by tumor inhibition rate. […]

[5] = Toxicity assessment in xenograft mice (weight, serum indices, blood routine); format: in vivo, BALB/c nude mouse; conditions: 15 mg/kg
Source text: • a) Cell line: Human hepatocellular carcinoma cell line HepG2 is bought from the Cell Bank of Chinese Academy of Sciences for Type Culture Collection • b) Animal: 20 BALB/c male nude mouse with weight of (13±2 g), the BALB/c mice is bought from Model Animal Research Center of Nanjing University, the animal is bred under the environment without a special pathogen in the Animal Center of Jiangsu Traditional Chinese Medicine Research Institution [SCXK( ? ) 2002-0001]. • c) Pharmaceutical: Iso A 2. Experiment Method: • a) Make of a murine xenograft model ofepatocellular carcinoma: HepG2 cells in log phase are digested with trypin, and suspended with a final density of 2×10^7 cells/ml. Then, 200 μl (100 μl cells+100 μl matrigel) cell suspension is inoculated into the right subaxillary of nude mice with 1 ml injector. • b) Group and administration of experimental animal: grouping when the tumor becomes 100 mm^3 into 10 per group (same average volume per group, too big or small ones are eliminated). Grouping specifically as followings: (1) Iso A 15 mg/kg dose group, (2) solvent control group (0.5% CMC-Na). Administrate one time every day for total 15 days. • c) Sample selection and index observation: • i. observation for normal state: before drug administration, measure the weight and tumor size (tumor volume V=long diameter×short diameter^2/2) one time every day. Observe the locomotor activity, mental state, hair, breath, diet, manure trait and reaction to outside world of the mice. After ending pharmaceutical interference, the mice are anesthetized and the blood is acquired by cardiac puncture. The serum is got by centrifugation and store in −80° C. After the skin of the tumor growing part on the right axilla of the mice is nipped by forceps, use a surgical scissors to cut the skin for exposing the tumor, then use the surgical scissors to dissect the tumor with blunt dissection and use a scale to weigh the tumor, transplanted tumor and calculate the inhibition rate. Antitumor effect is determined by tumor inhibition rate. Tumor inhibition rate (%)=[1−(average weight of tumor in experimental group/average weight of tumor in control group)]×100% • ii. Detecting apoptosis of tumor tissues with TUNEL staining: according to TUNEL apoptosis detection kit specification of Roche Inc. after fixing frozen tissue section in room temperature. • iii. Blood routine examination for assessing the marrow toxicity of Iso A, analyze ALT, AST, ALP level in plasma for assessing hepatotoxicity of Iso A, and measure the creatinine and urea nitrogen for assessing renal damage.
Fabricate mice transplanted hepatocellular carcinoma model, and group mice into control group and Iso A (15 mg/kg) administration group at random. Record the weight and tumor size one time every three days and kill the mice after 15-day-administration for detection and analysis of the tumor tissues, blood etc.

Trx1 [6] = target: T1, Trx1 (Homo sapiens, UniProt P10599); experiment: In vitro Trx1 activity, Thioredoxin Activity Fluorescent Assay Kit; format: biochemical; parameters: purchased Sino Biological Inc; conditions: read-out: inhibition rate of Trx1 activity
T1 sequence (P10599 1-105): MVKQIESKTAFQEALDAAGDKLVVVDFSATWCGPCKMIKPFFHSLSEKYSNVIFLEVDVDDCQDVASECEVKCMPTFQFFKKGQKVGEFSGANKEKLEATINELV
Protocol: Trx1 protein was bought from Sino Biological Inc., Trx1 activity detection kit was bought from American Caymen Chemical cooperation.
The in vitro activity of Trx is assayed using the—Thioredoxin Activity Fluorescent Assay Kit (Caymen Chemical). According to the instructions of the kit 2 μl of Iso A with different concentrations (0.195 μM to 100 μM) is added into 0.02 μM Trx mix, following by adding 5 μl of β-NADPH into each sample to incubate in 37° C. for 30 min. Then, a fluorescent substrate is added and Trx1 activity is was recorded as the emission at 518 nm after 488 nm excitation for 30-60 min, with a Thermo Scientific Varioskan Flash fluorescent microplate reader.

Trx1 [7] = target: T1, Trx1; experiment: Mass spectrometry analysis of direct conjugation with Trx1 protein; format: binding; parameters: purchased Sino Biological Inc; conditions: 2 h room temperature, MALDI mass spectrometry; FIG. 8
Protocol: Human-derived Trx1 protein (Sino Biological Inc.) is dissolved in distilled water at a 5 mg/ml and stored. In 25 mM Tris-HCl (pH 7.4) buffer, mixi 4 μl Iso A with 140 μl human Trx1 protein to incubate for 2 h in room temperature. Samples after reaction is treated by Shimadzu Biotech Proteome kit for enzymatic hydrolysis with MonoSpin Trypsin, then desalted by MonoSpin® C18 column for mass spectrometry analysis with MALDI 7090 (SHIMADZU).

Trx1 [8] = target: T1, Trx1; experiment: Trx1 activity in HepG2 cells (insulin reduction/DTNB); format: cell-based; parameters: endogenous in cells; host or cells: HepG2; conditions: 10-30 μM for 8 hours; relative to 0.5% DMSO control; FIG. 7
Protocol: (§2) Methods for measuring Trx1 activity in cells or tissue samples: using lysates (20 mM HEPES (pH 7.9), 300 mM NaCl, 100 mM KCl, 10 mM EDTA and 0.1% Nonidet P-40, protease-contained inhibitor) to lyse the cells or tissue samples. Pre-treating 90 μg protein at 37° C. for 15 min by using DTT activation buffer (50 mmol/liter HEPES (pH 7.6), 1 mmol/liter EDTA, 1 mg/ml bovine serum albumin, and 2 mmol/liter dithiothreitol). Then adding 20 μl reaction mixture (200 μl of 1 M HEPES (pH 7.6), 40 μl of 0.2 mol/liter EDTA, 40 μl of NADPH (40 mg/ml)) and 500 μl insulin. Adding 5 μl thioredoxin reductase for initial reaction while adding water of same volume into the control group. Incubate the samples in 37° C. for 20 min, and then add 6 M guanidine hydrochloride of 0.25 ml and 0.4 mg/ml DTNB to terminate reaction. Detecting optical absorption of 412 nm.
Cultivate human hepatocellular carcinoma cell line HepG2 in vitro culture. […] Calculate the relative activity of Trxl in each group under the condition that negative control activity is 1.

Trx1 [9] = target: T1, Trx1; experiment: Trx1 activity in xenograft tumor tissues; format: in vivo, BALB/c nude mouse; parameters: from tissue; host or cells: HepG2 xenograft tumor from BALB/c nude mice; conditions: 15 mg/kg once daily, 15 days; FIG. 12
Protocol: as §2, with “Detecting optical absorption of 412 nm.” left out
• a) Cell line: Human hepatocellular carcinoma cell line HepG2 is bought from the Cell Bank of Chinese Academy of Sciences for Type Culture Collection • b) Animal: 20 BALB/c male nude mouse with weight of (13±2 g), the BALB/c mice is bought from Model Animal Research Center of Nanjing University, the animal is bred under the environment without a special pathogen in the Animal Center of Jiangsu Traditional Chinese Medicine Research Institution [SCXK( ? ) 2002-0001]. • c) Pharmaceutical: Iso A 2. […] Antitumor effect is determined by tumor inhibition rate. […]

Question: For `C=C1C(=O)[C@]23C[C@H]1[C@@H](OC(C)=O)[C@H](OC(C)=O)[C@H]2[C@]1(C)C[C@H](OC(C)=O)[C@H](OC(C)=O)C(C)(C)[C@H]1[C@@H](O)C3` [Iso A, Isoforresin A], which IC50 [1] is on record?
Answer: Its IC50 is less than 30 µM.

Question: And the “inhibition of HepG2 cell growth (MTT)” value [2]?
Answer: The value was “inhibit the growth of HepG2 cell in a concentration-dependent manner”.

Question: What about the “inhibition of L02 cell growth (MTT)” value [3] of the same compound?
Answer: The value was “no obvious inhibitory effects”.

Question: What about the “cell death of HepG2 cells (trypan blue exclusion)” value (HepG2 cells) of the same compound?
Answer: Its value is “selectively trigger the death of HepG2 cells”.

Question: What about the “toxicity to normal cells (trypan blue exclusion)” value [4] of the same compound?
Answer: Its value is “obviously not toxic”.

Question: And the “Annexin V positive cells (apoptosis)” value (HepG2 cell; HepG2, 10 or 20 μM Iso A, 24 hours)?
Answer: The value was “increasement of Annexin V positive cells”.

Question: What about the tumor volume (HepG2 xenograft; FIG. 10) of the same compound?
Answer: Its tumor volume is “significantly decreased”.

Question: And the tumor weight (HepG2 xenograft; FIG. 11)?
Answer: Its tumor weight is “significantly decreased”.

Question: And the “toxic or side effects on marrow, liver and kidney” value ([5]; 15 days, xenograft murine model)?
Answer: Its value is “no toxic or side effects”.

Question: What about the “ALP level in serum” value ([5]; 15 days, FIG. 13) of the same compound?
Answer: The value was “no obvious difference”.

Question: And the “ALT level in serum” value ([5]; 15 days, FIG. 13)?
Answer: The value was “no obvious difference”.

Question: And the “AST level in serum” value ([5]; 15 days, FIG. 13)?
Answer: The value was “no obvious difference”.

Question: And the “creatinine level in serum” value ([5]; 15 days, FIG. 14)?
Answer: Its value is “no obvious difference”.

Question: What about the “urea nitrogen level in serum” value ([5]; 15 days, FIG. 14) of the same compound?
Answer: The value was “no obvious difference”.

Question: What about the “body weight of mice” value ([5]; during administration, vs control group, FIG. 9) of the same compound?
Answer: The value was “no difference in weight”.

Question: What about the inhibition at 2.5 µM (Trx1 [6]) of the same compound?
Answer: Its inhibition at 2.5 µM is 20%.

Question: And the inhibition at 5 µM (Trx1 [6])?
Answer: The inhibition at 5 µM was 48.6%.

Question: What about the inhibition at 10 µM (Trx1 [6]) of the same compound?
Answer: Its inhibition at 10 µM is 98%.

Question: And the “direct binding/conjugation with Trx1 protein (Cys 32/35)” value (Trx1 [7])?
Answer: Its value is “can directly bind with Trx1 protein”.

Question: And the “Trx1 activity in HepG2 cells” value (Trx1 [8])?
Answer: Its value is “significantly reduced”.

Question: And the “Trx1 activity in the tumor tissues” value (Trx1 [9])?
Answer: The value was “significantly decreased”.

Question: For `COC(=O)C[C@H](NC(=O)[C@H](C)NC(=O)[C@@H](NC(=O)OCc1ccccc1)C(C)C)C(=O)CF` [Z-VAD-FMK, reference compound] (Cbz-Val-Ala-Asp(OMe)-CH2F), which “effect of pan-caspase inhibitor on apoptosis induced by Iso A” value (HepG2 cell; HepG2) is on record?
Answer: Its value is “partially inhibits the apoptosis induced by Iso A”.
